From PubChem BioAssay AID256 (DTP/NCI, 2004)
Where “and” joins values, the source holds several entries; their conditions need not be identical. Equal values may be shown once. Toxic doses and inconclusive results are not listed. Rule for the calls: active = survival T/C of 150% or more; inactive = T/C below 125% in these data.

Test system: CD2F1 mice, L1210 leukemia ip, survival T/C
Test: NCI In Vivo Anticancer Drug Screen. Data for tumor model L1210 Leukemia (intraperitoneal) in CD2F1 (CDF1) mice
Conditions: endpoint: mean survival time, higher = longer survival
Outline: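 Compound-dosed mice with transplantable tumor versus matched vehicle controls; endpoint ratio T/C reported.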

[1] = dose: 100.0 mg/kg/injection, schedule: Q01DX009 (ip), vehicle: saline with Tween-80

Measured: T/C

C[n+]1ccccc1
inactive: dose: 100.0 mg/kg/injection, schedule: Q01DX009 (ip), vehicle: saline 97 % of control | dose: 100.0 mg/kg/injection, schedule: Q04DX002 (ip), vehicle: other 96 % of control | dose: 200.0 mg/kg/injection, schedule: Q01DX009 (ip), vehicle: saline 101 % of control | dose: 200.0 mg/kg/injection, schedule: Q04DX002 (ip), vehicle: other 93 % of control | dose: 400.0 mg/kg/injection, schedule: Q01DX009 (ip), vehicle: saline 97 % of control | dose: 400.0 mg/kg/injection, schedule: Q04DX002 (ip), vehicle: other 96 % of control

O=C(Nc1ccccc1O)/C(Cl)=C/Cl
inactive: [1] 104 % of control

Brc1ccc2c(c1)-c1ccccc1C2Br (stereo not given)
inactive: dose: 62.5 mg/kg/injection, schedule: Q04DX003 (ip), vehicle: saline with Tween-80 107 % of control | dose: 125.0 mg/kg/injection, schedule: Q04DX003 (ip), vehicle: saline with Tween-80 109 % of control | dose: 250.0 mg/kg/injection, schedule: Q04DX003 (ip), vehicle: saline with Tween-80 98 % of control

C[S+](C)c1ccccc1
inactive: dose: 12.5 mg/kg/injection, schedule: Q04DX002 (ip), vehicle: saline 100 % of control | dose: 25.0 mg/kg/injection, schedule: Q04DX002 (ip), vehicle: saline 96 % of control | dose: 50.0 mg/kg/injection, schedule: Q04DX002 (ip), vehicle: saline 100 % of control

CN(Cc1ccc(Cl)cc1)N=Nc1ccc(C(=O)O)cc1
inactive: dose: 7.9 mg/kg/injection, schedule: Q01DX009 (ip), vehicle: other 94 % of control | dose: 15.7 mg/kg/injection, schedule: Q01DX009 (ip), vehicle: other 94 % of control | dose: 31.3 mg/kg/injection, schedule: Q01DX009 (ip), vehicle: other 105 % of control | dose: 62.5 mg/kg/injection, schedule: Q01DX009 (ip), vehicle: other 90 % of control | dose: 100.0 mg/kg/injection, schedule: Q01DX009 (ip), vehicle: other 101 % of control | dose: 125.0 mg/kg/injection, schedule: Q01DX009 (ip), vehicle: other 97 % of control | dose: 200.0 mg/kg/injection, schedule: Q01DX009 (ip), vehicle: other 93 % of control

Cc1ccc2nc(-c3ccc([N+](=O)[O-])cc3)oc(=O)c2c1
inactive: dose: 50.0 mg/kg/injection, schedule: Q01DX009 (ip), vehicle: saline with Tween-80 93 % of control | [1] 97 % of control | dose: 200.0 mg/kg/injection, schedule: Q01DX009 (ip), vehicle: saline with Tween-80 93 % of control

O=C(OC1C=Cc2ccccc21)c1ccc([N+](=O)[O-])cc1 (stereo not given)
inactive: dose: 100.0 mg/kg/injection, schedule: Q01DX001 (ip), vehicle: saline with Tween-80 97 % of control | dose: 200.0 mg/kg/injection, schedule: Q01DX001 (ip), vehicle: saline with Tween-80 90 % of control | dose: 400.0 mg/kg/injection, schedule: Q01DX001 (ip), vehicle: saline with Tween-80 97 % of control

CCOP(=O)(OCC)C1=C(SCC)C(F)(F)C(F)(F)C1(F)F
inactive: dose: 75.0 mg/kg/injection, schedule: Q01DX001 (ip), vehicle: other 104 % of control

CC1(C)N=C(N)N=C(N)N1c1ccc(C(=O)Nc2ccc(S(=O)(=O)F)cc2)cc1
inactive: dose: 100.0 mg/kg/injection, schedule: Q01DX001 (ip), vehicle: saline 94 % of control | dose: 200.0 mg/kg/injection, schedule: Q01DX001 (ip), vehicle: saline 97 % of control | dose: 400.0 mg/kg/injection, schedule: Q01DX001 (ip), vehicle: saline 103 % of control

[Cl][Sn]([c]1ccccc1)([c]1ccccc1)[c]1ccccc1
inactive: dose: 2.5 mg/kg/injection, schedule: Q04DX003 (ip), vehicle: saline 91 % of control | dose: 5.0 mg/kg/injection, schedule: Q04DX003 (ip), vehicle: saline 100 % of control | dose: 10.0 mg/kg/injection, schedule: Q04DX003 (ip), vehicle: saline with Tween-80 97 % of control | dose: 10.0 mg/kg/injection, schedule: Q04DX003 (ip), vehicle: saline 96 % of control

Nc1ncnc2c1ncn2C1C=C(CO)C(O)C1O (stereo not given)
inactive: dose: 0.25 mg/kg/injection, schedule: Q01DX009 (ip), vehicle: Klucel (hydroxypropylcellulose) (HPC) 122 % of control | dose: 0.5 mg/kg/injection, schedule: Q01DX009 (ip), vehicle: Klucel (hydroxypropylcellulose) (HPC) 113 % of control and 123 % of control | dose: 1.0 mg/kg/injection, schedule: Q01DX009 (ip), vehicle: Klucel (hydroxypropylcellulose) (HPC) 124 % of control | dose: 4.0 mg/kg/injection, schedule: Q01DX009 (ip), vehicle: Klucel (hydroxypropylcellulose) (HPC) 122 % of control

NC(Cc1ccc(N(CCCl)Cc2ccccc2)cc1)C(=O)O (stereo not given)
inactive: dose: 3.12 mg/kg/injection, schedule: Q01DX009 (ip), vehicle: distilled water + Tween-80 103 % of control and 107 % of control | dose: 3.13 mg/kg/injection, schedule: Q01DX009 (ip), vehicle: distilled water + Tween-80 106 % of control
